Test system: A375 multi-cell spheroids with HUVEC/MSC, viability
Test: Anticancer human tumor A375 cell line growth inhibition [GQUAD];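 note: spheroids exposed to compounds for seven days before readout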
Details: for IC50: curve of first compound; for viability, T/C: stronger effect = lower value
From the text: DNA G-quadruplex Stabilizer Agents in Combinations in Complex Spheroids
A high-throughput screen of multi-cell type tumor spheroids was designed to identify active combinations of DNA G-quadruplex stabilizer agents and targeted small molecules. Complex spheroids include a stromal component modeled by human endothelial cells (HUVEC) and fibroblasts modeled by human mesenchymal stem cells (MSCs). The concentration ranges selected for each drug and investigational agent were based upon clinically achievable concentrations if the clinical Cmax of the agent was known.
Compounds. The drugs and investigational agents: pidnarulex (CX-5461; NSC782164), APTO-253 (NSC789042), BRACO-19 (NSC847499), peposertib (NSC802822), ceralasertib (NSC780249), elimusertib (NSC800525), camonsertib (NSC841442), AZD-1390 (NSC803789), olaparib (NSC753686), talazoparib (NSC767125), ART-558 (NSC835418), sotorasib (NSC818433), MRTX-1133 (NSC836407), SN-38 (NSC673596), topotecan (NSC609699), etoposide (NSC141540), doxorubicin (NSC123127), gemcitabine (NSC613327), 5-fluorouracil (NSC19893), paclitaxel (NSC125973), vemurafenib (NSC761431), panobinostat (NSC761190), R-306465 (JNJ-16241199; NSC773264), adavosertib (NSC754352), TP-3654 (NSC805149), carboplatin (NSC241240), KSQ-4279 (NSC840948), and staurosporine (NSC755774) were obtained from the National Cancer Institute (NCI) Developmental Therapeutics Program Chemical Repository (34). The FDA-approved anticancer drug set is available from the NCI Developmental Therapeutics Program. […] The stock solutions were prepared in dimethyl sulfoxide (DMSO, Sigma-Aldrich, St. Louis, MO, cat. D2650) at 800-fold the tested concentration and stored at -70 degrees C prior to their use. All drugs and investigational agents were tested over a range starting from a high concentration at or near the clinical Cmax and decreasing in half-log increments. If the clinical Cmax for an agent had not been determined, the highest concentration tested was 10 microM.
2.3 Cell Culture. All cells were maintained in an incubator at 37 degrees C and 5% CO2 with 95% humidity. The PDC lines were cultured according to standard operating procedures established by the NCI PDMR. All PDCs were thawed and cultured in Matrigel-coated flasks prepared with a working solution of 1X Ham's F-12 nutrient mix, without supplementation (Invitrogen, cat. 11765054), 100 U/mL penicillin-streptomycin (Invitrogen, cat. 15140122), and 2.5% Matrigel (Corning Inc., cat. 354248) for the first three passages. The 857933-349-R-J2-PDC line was cultured in 6C/Colon 1B media, which includes advanced DMEM/F-12 (Thermo Fisher Scientific, cat. 12634028), 10 mM HEPES (Thermo Fisher Scientific, cat. 15630080), 1X GlutaMAX supplement (Thermo Fisher Scientific, cat. 35050061), 0.1 mg/mL primocin (InvivoGen, cat. ant-pm-2), 10% defined fetal bovine serum, heat inactivated (HyClone Laboratories Inc., cat. SH30070.03HI), 50% L-WRN conditioned media (ATCC, cat. CRL-3276), 1.25 mM N-Acetyl-L-cysteine (Sigma-Aldrich, cat. A9165), 10 mM nicotinamide (Sigma-Aldrich, cat. N0636), 1X B-27 supplement (Thermo Fisher Scientific, cat. 17504044), 1X N-2 supplement (Thermo Fisher Scientific, cat. 17502048), 10 microM Y-27632 dihydrochloride (Tocris Bioscience, cat. 1254), and 50 ng/mL human EGF recombinant protein (Thermo Fisher Scientific, cat. PHG0311). The 485176-168-R4-J1-PDC line was cultured in Panc media, which includes all 6C/Colon 1B media components plus 100 ng/mL human FGF-10 (Thermo Fisher Scientific, cat. 100-26), 500 nM SB-431542 (Selleckchem, cat. S1067), and gastrin (Tocris, cat. 3006).
[…]

[1] = second compound 0.0316 µM, first compound 0.0316 µM
[2] = second compound 0.0316 µM, first compound 0.316 µM
[3] = second compound 0.1 µM, first compound 0.0316 µM
[4] = second compound 0.1 µM, first compound 0.316 µM
[5] = second compound 0.316 µM, first compound 0.0316 µM
[6] = second compound 0.316 µM, first compound 0.316 µM
[7] = second compound 1 µM, first compound 0.0316 µM
[8] = second compound 1 µM, first compound 0.316 µM
[9] = second compound 3.16 µM, first compound 0.0316 µM
[10] = second compound 3.16 µM, first compound 0.316 µM
[11] = second compound 10 µM, first compound 0.0316 µM
[12] = second compound 10 µM, first compound 0.316 µM

With `CC[C@@]1(O)C(=O)OCc2c1cc1n(c2=O)Cc2cc3c(CN(C)C)c(O)ccc3nc2-1` + Cc1cnc(CNC(=O)c2c(=O)c3ccc(N4CCCN(C)CC4)nc3n3c2sc2ccccc23)cn1 as the compound, how does the IC50 (second compound 0.0316 µM) read?
The IC50 was 0.0285 µM.

And the IC50 (second compound 0.1 µM)?
Its IC50 is 0.016 µM.

And the IC50 (second compound 0.316 µM)?
The IC50 was under 0.000999 µM.

And the IC50 (second compound 1 µM)?
The IC50 was under 0.000999 µM.

What about the IC50 (second compound 3.16 µM) of the same compound?
The IC50 was under 0.000999 µM.

What about the IC50 (second compound 10 µM) of the same compound?
The IC50 was under 0.000999 µM.

What about the viability, T/C (second compound 0.0316 µM, first compound 0.000999 µM) of the same compound?
Its viability, T/C is 114%.

What about the viability, T/C (second compound 0.0316 µM, first compound 0.00316 µM) of the same compound?
The viability, T/C was 103%.

What about the viability, T/C (second compound 0.0316 µM, first compound 0.00999 µM) of the same compound?
Its viability, T/C is 107%.

What about the viability, T/C [1] of the same compound?
Its viability, T/C is 44.1%.

What about the viability, T/C (second compound 0.0316 µM, first compound 0.0999 µM) of the same compound?
Its viability, T/C is 17.8%.

What about the viability, T/C [2] of the same compound?
The viability, T/C was 11.3%.

What about the viability, T/C (second compound 0.1 µM, first compound 0.000999 µM) of the same compound?
The viability, T/C was 76.2%.

What about the viability, T/C (second compound 0.1 µM, first compound 0.00316 µM) of the same compound?
Its viability, T/C is 64.3%.

And the viability, T/C (second compound 0.1 µM, first compound 0.00999 µM)?
Its viability, T/C is 64.3%.

What about the viability, T/C [3] of the same compound?
Its viability, T/C is 31.4%.

And the viability, T/C (second compound 0.1 µM, first compound 0.0999 µM)?
Its viability, T/C is 20.5%.

And the viability, T/C [4]?
The viability, T/C was 11.8%.

What about the viability, T/C (second compound 0.316 µM, first compound 0.000999 µM) of the same compound?
Its viability, T/C is 48.6%.

And the viability, T/C (second compound 0.316 µM, first compound 0.00316 µM)?
The viability, T/C was 42.5%.

What about the viability, T/C (second compound 0.316 µM, first compound 0.00999 µM) of the same compound?
The viability, T/C was 45.3%.

What about the viability, T/C [5] of the same compound?
Its viability, T/C is 27.6%.

And the viability, T/C (second compound 0.316 µM, first compound 0.0999 µM)?
Its viability, T/C is 17%.

What about the viability, T/C [6] of the same compound?
Its viability, T/C is 13.9%.

What about the viability, T/C (second compound 1 µM, first compound 0.000999 µM) of the same compound?
Its viability, T/C is 39.8%.

And the viability, T/C (second compound 1 µM, first compound 0.00316 µM)?
Its viability, T/C is 38.9%.

What about the viability, T/C (second compound 1 µM, first compound 0.00999 µM) of the same compound?
Its viability, T/C is 29.9%.

And the viability, T/C [7]?
The viability, T/C was 29.1%.

And the viability, T/C (second compound 1 µM, first compound 0.0999 µM)?
Its viability, T/C is 19.1%.

And the viability, T/C [8]?
The viability, T/C was 13%.

And the viability, T/C (second compound 3.16 µM, first compound 0.000999 µM)?
The viability, T/C was 30.5%.

And the viability, T/C (second compound 3.16 µM, first compound 0.00316 µM)?
The viability, T/C was 29.8%.

What about the viability, T/C (second compound 3.16 µM, first compound 0.00999 µM) of the same compound?
The viability, T/C was 30.3%.

What about the viability, T/C [9] of the same compound?
Its viability, T/C is 25.4%.

And the viability, T/C (second compound 3.16 µM, first compound 0.0999 µM)?
The viability, T/C was 17.6%.

And the viability, T/C [10]?
The viability, T/C was 14.7%.

What about the viability, T/C (second compound 10 µM, first compound 0.000999 µM) of the same compound?
The viability, T/C was 23.6%.

And the viability, T/C (second compound 10 µM, first compound 0.00316 µM)?
The viability, T/C was 30.3%.

What about the viability, T/C (second compound 10 µM, first compound 0.00999 µM) of the same compound?
Its viability, T/C is 30.8%.

What about the viability, T/C [11] of the same compound?
The viability, T/C was 23.9%.

And the viability, T/C (second compound 10 µM, first compound 0.0999 µM)?
The viability, T/C was 18.7%.

And the viability, T/C [12]?
The viability, T/C was 15.6%.

Which results are given for `COc1cc(C2c3cc4c(cc3C(OC3OC5COC(C)OC5C(O)C3O)C3COC(=O)C23)OCO4)cc(OC)c1O` (centres undefined) + Cc1cnc(CNC(=O)c2c(=O)c3ccc(N4CCCN(C)CC4)nc3n3c2sc2ccccc23)cn1?
IC50 (second compound 0.0316 µM): 0.656 µM; IC50 (second compound 0.1 µM): 0.213 µM; IC50 (second compound 0.316 µM): < 0.0316 µM; IC50 (second compound 1 µM): < 0.0316 µM; IC50 (second compound 3.16 µM): < 0.0316 µM; IC50 (second compound 10 µM): < 0.0316 µM; viability, T/C [1]: 110%; viability, T/C (second compound 0.0316 µM, first compound 0.1 µM): 90.6%; viability, T/C [2]: 65.6%; viability, T/C (second compound 0.0316 µM, first compound 1 µM): 40.7%; viability, T/C (second compound 0.0316 µM, first compound 3.16 µM): 27.4%; viability, T/C (second compound 0.0316 µM, first compound 10 µM): 20.2%; viability, T/C [3]: 73.6%; viability, T/C (second compound 0.1 µM, first compound 0.1 µM): 59.8%; viability, T/C [4]: 43.6%; viability, T/C (second compound 0.1 µM, first compound 1 µM): 33.5%; viability, T/C (second compound 0.1 µM, first compound 3.16 µM): 25.8%; viability, T/C (second compound 0.1 µM, first compound 10 µM): 14.7%; viability, T/C [5]: 48.3%; viability, T/C (second compound 0.316 µM, first compound 0.1 µM): 50.2%; viability, T/C [6]: 37.8%; viability, T/C (second compound 0.316 µM, first compound 1 µM): 32.4%; viability, T/C (second compound 0.316 µM, first compound 3.16 µM): 22.1%; viability, T/C (second compound 0.316 µM, first compound 10 µM): 14.3%; viability, T/C [7]: 40.1%; viability, T/C (second compound 1 µM, first compound 0.1 µM): 38.6%; viability, T/C [8]: 30.6%; viability, T/C (second compound 1 µM, first compound 1 µM): 30.7%; viability, T/C (second compound 1 µM, first compound 3.16 µM): 22.3%; viability, T/C (second compound 1 µM, first compound 10 µM): 15.3%; viability, T/C [9]: 34%; viability, T/C (second compound 3.16 µM, first compound 0.1 µM): 32.5%; viability, T/C [10]: 31%; viability, T/C (second compound 3.16 µM, first compound 1 µM): 26%; viability, T/C (second compound 3.16 µM, first compound 3.16 µM): 23.4%; viability, T/C (second compound 3.16 µM, first compound 10 µM): 13.9%; viability, T/C [11]: 29.2%; viability, T/C (second compound 10 µM, first compound 0.1 µM): 28.1%; viability, T/C [12]: 31.8%; viability, T/C (second compound 10 µM, first compound 1 µM): 27.3%; viability, T/C (second compound 10 µM, first compound 3.16 µM): 21%; viability, T/C (second compound 10 µM, first compound 10 µM): 13.4%
